Data set [1] has as its system CREB-mediated gene transcription. In words: CREB transcription renilla luciferase reporter assay in HEK 293T cells. It counts as cell-based. Particulars: for combination index (CI) in inhibiting CREB-mediated gene transcription: Chou-Talalay; for effect of combination with 666-15 on inhibition of CREB-mediated gene transcription: compound combined with 666-15; for IC50: Homo sapiens. How it is done:
^a The IC50 refers to the concentration needed to inhibit 50% of the CREB-mediated gene transcription in HEK 293T cells using a transcription renilla luciferase reporter assay. The data are presented as mean±standard deviation (SD) of at least two independent experiments, which were performed in triplicates.
To test this possibility, we employed a transcription luciferase reporter assay in HEK 293T cells.^22 Briefly, the cells were transfected with a CREB renilla luciferase reporter plasmid (CRE-RLuc). This plasmid expresses renilla luciferase under the control of three tandem copies of CRE in the promoter region.
Inhibition of CREB-mediated gene transcription. HEK 293T cells were transfected with CRE-RLuc. Then the cells were treated with increasing concentrations of individual compounds (FIG. 2A) or drug combinations (FIG. 2B) for 30 min before the addition of Fsk (10 μM) for 5 h. The renilla luciferase activity was normalized to the protein concentration in each well and expressed as relative luciferase unit (RLU)/μg protein. The errors are SEM from one representative experiment in triplicate.
HEK293T cells in a well of 6-well plate were transfected with a plasmid (1 μg) encoding renilla luciferase under the control of three copies of CRE (pCRE-RLuc) using Lipofectamin^2000 (Life Technologies) for 3 h. Then the cells were replated into a 96-well plate and the cells were allowed to attach to the bottom of the plate for overnight. The cells were treated with different concentrations of the compounds for 30 min, when Fsk (10 μM) was added to the cells. The cells were further incubated for 5 h at 37° C. The media were removed and the cells were lysed in 30 μl 1× renilla luciferase lysis buffer (Promega) and the renilla luciferase activity was measured using the renilla luciferase assay system (Promega). The protein concentration in each well was determined using the Protein Assay Dye Reagent Concentrate (Bio-rad). The luciferase activity in each well was normalized to the protein concentration and expressed as relative luciferase unit (RLU)/μg protein. The IC50 was calculated in Prism 5.0 using the non-linear regression analysis.
On the technique in general: In a reporter assay the amount or activity of a reporter protein is the signal.

The next data set has as its target KIX-KID interaction (Homo sapiens, UniProt Q92793). The data set is described as follows: split renilla luciferase complementation assay of KIX-KID interaction. It counts as cell-based.
A further data set deals with NR4A2. The data set is described as follows: endogenous CREB target gene expression by qRT-PCR in HEK 293T cells. Format: cell-based. Particulars: Fsk-stimulated HEK 293T cells. Background: Quantitative PCR measures a nucleic acid by following its amplification.
In another data set the test system is MDA-MB-231 cells. The data set is described as follows: cell growth inhibition MTT assay. It counts as cell-based. How it is done:
Then the viable cells were quantified by the MTT reagent. […] The data are presented as mean+SEM. The SEM was from one representative experiment performed in duplicates.
The cells were plated in 96-well plates at 1,000 cells/well and allowed to attach to the bottom of the plate for overnight. Then the cells were treated with different concentrations of compounds for 72 h at 37° C. At the end of treatment, the viable cells were determined by incubating cells with MTT reagent (0.5 mg/mL) in the complete tissue culture media for 3 h. Then the media were removed and the formed purple formazan was dissolved in DMSO for quantification by absorbance at 570 nm using a SpectraMax i3 plate reader (Molecular Devices). The percent of growth is defined as 100×(Atreated−Ainitial)/(Acontrol−Ainitial), where Atreated represents absorbance in wells treated with a compound, Ainitial represents the absorbance at time 0, and Acontrol denotes media-treated cells.

Data set [2] in a line: aqueous solubility in ddH2O. As to conditions: water. It counts as physicochemical. The text has this:
Furthermore, we discovered a novel compound that can potentiate 666-15's inhibitory effect against CREB-mediated gene transcription in living cells.
The synthesis of compound 3 is presented in Scheme 1. […] Under the coupling conditions we used before (BOP, DIPEA, room temperature),^13 a mixture of compositional isomers 6 and 7 (2-(3-(3-((tert-butoxycarbonyl)amino)propoxy)-2-naphthamido)-5-chlorophenyl 3-(2-((tert-butoxy carbonyl)amino)ethoxy)-2-naphthoate) involving acyl group swapping was obtained. These two isomers were only partially separable by conventional silica gel column chromatograph. […] The formation of the unanticipated alternative ester 7 was likely a result of generation of imide intermediate 8 (2-(3-(2-((tert-butoxycarbonyl)amino)ethoxy)-2-naphthamido)-5-chloro-3-hydroxyphenyl 3-(3-((tert-butoxycarbonyl) amino)propoxy)-2-naphthoate) although it was not detected from the reaction mixture. The intermediate 8 could be generated either before the formation of 6 (2-(3-(2-((tert-butoxycarbonyl) amino)ethoxy)-2-naphthamido)-5-chlorophenyl 3-(3-((tert-butoxycarbonyl)amino) propoxy)-2-naphthoate) or after 6 was formed. Once 8 was produced, it could generate either 6 or 7 through an ester bond formation (Scheme 1). […] The Boc groups (tert-butyloxycarbonyl protecting groups) in 6 were then deprotected under acidic condition (HCl, DCM) to give 3 uneventfully. […]

Data set [3] is described as follows: conversion of ester 3 in complete cell culture media (DMEM with 10% FBS), HPLC. It counts as in vitro ADME. Particulars: 37° C. As for the experimental part:
With the desired compound 3 in hand, we first investigated the possibility of transformation of 3 into 666-15 in the complete cell culture media (Dulbecco's Modified Eagle Medium with 10% fetal bovine serum (FBS)). […] In stark contrast to the structural congener 2,^15 only a small amount of 666-15 was generated under the reaction condition. In order to investigate if simple ester hydrolysis was occurring to generate products 9 and 10 (FIG. 2A), we compared the main peaks eluted at 10.5 min and 11.2 min with standard samples of 9 and 10 by HPLC.
Compound 3 (200 μM) was incubated with complete tissue culture media (DMEM with 10% FBS) at 37° C. for various time periods. An aliquot of 10 μl was taken at a given time point and mixed with acetonitrile (90 μL). The mixture was centrifuged at 14,000×rpm for 5 min at room temperature in a tabletop centrifuge to precipitate proteins. The supernatant was collected and analyzed by HPLC eluting with a linear of water and acetonitrile, both of which contained 0.1% TFA.

Data set [4] is described as follows: stability of stock solution in DMSO. Format: physicochemical. Particulars: long-term storage of stock solution.
For data set [5] the following is noted: from reference 15; cited from earlier work.
Where [6] appears, read: HEK 293T cells, CRE-RLuc reporter, Fsk stimulated, mean ± SD of at least two independent experiments, read-out: CREB inhibition (IC50).

SMILES strings stand for the structures. Where a name gives a salt, the structure may show the parent alone. Read-outs that look alike come from different tables or passages of the source.

KIX-KID interaction, sequence (Q92793 587-666 limits assumed): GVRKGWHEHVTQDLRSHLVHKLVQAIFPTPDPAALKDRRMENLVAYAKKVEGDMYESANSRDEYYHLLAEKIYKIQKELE
Experimental for NR4A2: Then the cells were subjected to qRT-PCR analysis after the total RNA was isolated using HPRT as a reference gene.
Then the cells were stimulated with Fsk (10 μM) for 45 min. The total RNA was isolated using NucleoSpin® RNA isolation kit (Takara Bio). Following RNA isolation, the first strand cDNA was synthesized using PrimeScript™ 1st strand cDNA synthesis kit (Takara Bio) with random hexamers as the primers. Quantitative PCR reactions were performed with TB Green® Advantage® qPCR Premix (Takara Bio). The relative mRNA level was determined with double delta Ct method using HPRT as a reference gene.

On to `NCCCOc1cc2ccccc2cc1C(=O)Nc1ccc(Cl)cc1O` [Compound 11, 3-(3-aminopropoxy)-N-(4-chloro-2-hydroxyphenyl)-2-naphthamide], for which the “combination index (CI) in inhibiting CREB-mediated gene transcription” value in data set [1] (11 (5 μM) combined with 666-15 0.01 μM) was determined as 2.87; in data set [1] (11 (5 μM) combined with 666-15 0.05 μM) it was 0.31; in [1] (11 (5 μM) combined with 666-15 0.1 μM) it was 0.17; in data set [1] (11 (5 μM) combined with 666-15 0.5 μM) it was 0.37; in data set [1] (11 (5 μM) combined with 666-15 1.0 μM), 0.56; in data set [1] (11 (5 μM) combined with 666-15 5.0 μM) it was 2.41. Further, the “effect of combination with 666-15 on inhibition of CREB-mediated gene transcription” value in [1] (HEK 293T cells) is given as “significantly potentiated activity of 666-15”. Also, the IC50 (as a rule, the concentration needed to halve the response being measured) is 26.3 ± 13.6 µM in [1] (setting [6]) and over 50 µM against KIX-KID interaction. Further, the “expression level of NR4A2” value is “significant inhibition of NR4A2 transcription was observed” in the data set on NR4A2 (666-15 (50 nM) combined with compound 11 (5 μM)) and “did not inhibit the expression of NR4A2” in the data set with NR4A2 (compound 11 alone, 5 μM). Further, the “combination index (CI) of anti-proliferative effect” value with MDA-MB-231 cells (11 (0.5 or 1.0 μM) combined with 666-15, 72 h) is recorded as “less than 1.0”. Besides, in the data set with MDA-MB-231 cells (11 alone, 0.5 or 1.0 μM, 72 h), the “antiproliferative effect (cell growth)” value is given as “did not appreciably inhibit the cell growth”.

Turning to `NCCCOc1cc2ccccc2cc1C(=O)NCCOc1cc2ccccc2cc1C(=O)Nc1ccc(Cl)cc1O` [Compound 666-15, 3-(3-aminopropoxy)-N-(2-((3-((4-chloro-2-hydroxyphenyl)carbamoyl)naphthalen-2-yl)oxy)ethyl)-2-naphthamide], in data set [2], the solubility – broadly, the dissolved amount per volume that the medium holds – was under 0.5 mg/mL.

As for `NCCCOc1cc2ccccc2cc1C(=O)Oc1cc(Cl)ccc1NC(=O)c1cc2ccccc2cc1OCCN` (as salt: hydrochloride) [Compound 3, 2-(3-(2-Aminoethoxy)-2-naphthamido)-5-chlorophenyl 3-(3-Aminopropoxy)-2-naphthoate Dihydrochloride], the melting point (usually the temperature, or range, at which the solid turns liquid) fell in the range of 216 to 217 °C.

Compound `O=C1NCCOc2cc3ccccc3cc21` [Compound 12, 3,4-dihydronaphtho[2,3-f][1,4]oxazepin-5(2H)-one] displayed a melting point of 128 to 129 °C. The “CREB inhibition potency” value in data set [1] (HEK 293T cells, compound alone) is “inactive”. Further, in data set [1] (HEK 293T cells), the “effect of combination with 666-15 on inhibition of CREB-mediated gene transcription” value is reported as “did not produce further inhibition of CREB-mediated gene transcription”. Moreover, the IC50 in data set [1] (setting [6]) was over 50 µM.

On to `NCCCOc1cc2ccccc2cc1C(=O)Oc1cc(Cl)ccc1NC(=O)c1cc2ccccc2cc1OCCN` [Compound 3, 2-(3-(2-Aminoethoxy)-2-naphthamido)-5-chlorophenyl 3-(3-Aminopropoxy)-2-naphthoate Dihydrochloride], for which, in [1] (HEK-293T, read-out: CREB inhibition (IC50, μM)), the IC50 was found to be 0.25 ± 0.11 µM. Moreover, the solubility in [2] was over 100 mg/mL. Besides, the “conversion in complete cell culture media” value in data set [3] is reported as “rapidly converted into four new product peaks”. The “stability in DMSO” value in data set [4] is “unstable in DMSO for long-term storage”.

For `NCCCOc1cc2ccccc2cc1C(=O)Nc1ccc(Cl)cc1OC(=O)c1cc2ccccc2cc1OCCCN` [Compound 2, 2-(3-(3-aminopropoxy)-2-naphthamido)-5-chlorophenyl 3-(3-aminopropoxy)-2-naphthoate], the “aqueous solubility in ddH2O” value in data set [5] is over 100 mg/mL.

Source of the values: US20220387359A1, “SYNERGISTIC INHIBITORS OF CREB-MEDIATED GENE TRANSCRIPTION” (OREGON HEALTH & SCIENCE UNIVERSITY, priority 2019, published 2022).
